Experimental data published in ChEMBL document CHEMBL3045810, “Synthesis and evaluation of 4-(substituted)-acetylamino-3-mercapto-5-(4-substituted) phenyl-1,2,4-triazole derivatives as antimicrobial agents” (2012).
Active and inactive are the calls of the source. No cut-off for these calls is given here.

Columns and labels:
Escherichia coli [1] = experiment: Antibacterial activity against Escherichia coli ATCC 8793 at 70 ug/ml after 24 hr by paper disk diffusion method; format: functional; settings: ATCC 8793, 24 h, read-out: DIZ
Fusarium oxysporum [2] = experiment: Fungicidal activity against Fusarium oxysporum MTCC 2087; format: functional, organism-based
Aspergillus niger [3] = experiment: Fungicidal activity against Aspergillus niger MTCC 3323; format: functional, organism-based
Candida albicans [4] = experiment: Fungicidal activity against Candida albicans MTCC 227; format: functional, organism-based
Bacillus subtilis [5] = experiment: Bactericidal against Bacillus subtilis ATCC 6633; format: functional, organism-based
Staphylococcus aureus [6] = experiment: Antibacterial activity against Staphylococcus aureus ATCC 25923 at 50 ug/ml after 24 hr by paper disk diffusion method; format: functional; settings: ATCC 25923, 24 h, read-out: DIZ
Staphylococcus aureus [7] = experiment: Antibacterial activity against Staphylococcus aureus ATCC 25923 at 70 ug/ml after 24 hr by paper disk diffusion method; format: functional; settings: ATCC 25923, 24 h, read-out: DIZ
Pseudomonas aeruginosa [8] = experiment: Antibacterial activity against Pseudomonas aeruginosa ATCC 27853 at 30 ug/ml after 24 hr by paper disk diffusion method; format: functional; settings: ATCC 27853, 24 h, read-out: DIZ
Pseudomonas aeruginosa [9] = experiment: Antibacterial activity against Pseudomonas aeruginosa ATCC 27853 at 50 ug/ml after 24 hr by paper disk diffusion method; format: functional; settings: ATCC 27853, 24 h, read-out: DIZ
Pseudomonas aeruginosa [10] = experiment: Antibacterial activity against Pseudomonas aeruginosa ATCC 27853 at 70 ug/ml after 24 hr by paper disk diffusion method; format: functional; settings: ATCC 27853, 24 h, read-out: DIZ
Escherichia coli [11] = experiment: Antibacterial activity against Escherichia coli ATCC 8793 at 30 ug/ml after 24 hr by paper disk diffusion method; format: functional; settings: ATCC 8793, 24 h, read-out: DIZ
Escherichia coli [12] = experiment: Antibacterial activity against Escherichia coli ATCC 8793 at 50 ug/ml after 24 hr by paper disk diffusion method; format: functional; settings: ATCC 8793, 24 h, read-out: DIZ
Staphylococcus aureus [13] = experiment: Bactericidal activity against Staphylococcus aureus ATCC 25923; format: functional, organism-based
Pseudomonas aeruginosa [14] = experiment: Bactericidal activity against Pseudomonas aeruginosa ATCC 27853; format: functional, organism-based
Escherichia coli [15] = experiment: Bactericidal activity against Escherichia coli ATCC 8793; format: functional, organism-based
Fusarium oxysporum [16] = experiment: Antifungal activity against Fusarium oxysporum MTCC 2087 at 30 ug/ml by paper disk diffusion method; format: functional; settings: read-out: DIZ
Fusarium oxysporum [17] = experiment: Antifungal activity against Fusarium oxysporum MTCC 2087 at 50 ug/ml by paper disk diffusion method; format: functional; settings: read-out: DIZ
Fusarium oxysporum [18] = experiment: Antifungal activity against Fusarium oxysporum MTCC 2087 at 70 ug/ml by paper disk diffusion method; format: functional; settings: read-out: DIZ
Aspergillus niger [19] = experiment: Antifungal activity against Aspergillus niger MTCC 3323 at 30 ug/ml by paper disk diffusion method; format: functional; settings: read-out: DIZ
Aspergillus niger [20] = experiment: Antifungal activity against Aspergillus niger MTCC 3323 at 50 ug/ml by paper disk diffusion method; format: functional; settings: read-out: DIZ
Aspergillus niger [21] = experiment: Antifungal activity against Aspergillus niger MTCC 3323 at 70 ug/ml by paper disk diffusion method; format: functional; settings: read-out: DIZ
Candida albicans [22] = experiment: Antifungal activity against Candida albicans MTCC 227 at 30 ug/ml by paper disk diffusion method; format: functional; settings: read-out: DIZ
Candida albicans [23] = experiment: Antifungal activity against Candida albicans MTCC 227 at 50 ug/ml by paper disk diffusion method; format: functional; settings: read-out: DIZ
Candida albicans [24] = experiment: Antifungal activity against Candida albicans MTCC 227 at 70 ug/ml by paper disk diffusion method; format: functional; settings: read-out: DIZ
Bacillus subtilis [25] = experiment: Antibacterial activity against Bacillus subtilis ATCC 6633 at 30 ug/ml after 24 hr by paper disk diffusion method; format: functional; settings: ATCC 6633, 24 h, read-out: DIZ
Bacillus subtilis [26] = experiment: Antibacterial activity against Bacillus subtilis ATCC 6633 at 50 ug/ml after 24 hr by paper disk diffusion method; format: functional; settings: ATCC 6633, 24 h, read-out: DIZ
Bacillus subtilis [27] = experiment: Antibacterial activity against Bacillus subtilis ATCC 6633 at 70 ug/ml after 24 hr by paper disk diffusion method; format: functional; settings: ATCC 6633, 24 h, read-out: DIZ
Staphylococcus aureus [28] = experiment: Antibacterial activity against Staphylococcus aureus ATCC 25923 at 30 ug/ml after 24 hr by paper disk diffusion method; format: functional; settings: ATCC 25923, 24 h, read-out: DIZ

| Structure (SMILES) | zone of inhibition at 70 µg/mL (Escherichia coli [1]) | Activity (Fusarium oxysporum [2]) | Activity (Aspergillus niger [3]) | Activity (Candida albicans [4]) | Activity (Bacillus subtilis [5]) | zone of inhibition at 50 µg/mL (Staphylococcus aureus [6]) | zone of inhibition at 70 µg/mL (Staphylococcus aureus [7]) | zone of inhibition at 30 µg/mL (Pseudomonas aeruginosa [8]) | zone of inhibition at 50 µg/mL (Pseudomonas aeruginosa [9]) | zone of inhibition at 70 µg/mL (Pseudomonas aeruginosa [10]) | zone of inhibition at 30 µg/mL (Escherichia coli [11]) | zone of inhibition at 50 µg/mL (Escherichia coli [12]) | Activity (Staphylococcus aureus [13]) | Activity (Pseudomonas aeruginosa [14]) | Activity (Escherichia coli [15]) | zone of inhibition at 30 µg/mL (Fusarium oxysporum [16]) | zone of inhibition at 50 µg/mL (Fusarium oxysporum [17]) | zone of inhibition at 70 µg/mL (Fusarium oxysporum [18]) | zone of inhibition at 30 µg/mL (Aspergillus niger [19]) | zone of inhibition at 50 µg/mL (Aspergillus niger [20]) | further results |
| --- | --- | --- | --- | --- | --- | --- | --- | --- | --- | --- | --- | --- | --- | --- | --- | --- | --- | --- | --- | --- | --- |
| Cc1ccc(-c2nnc(S)n2NC(=O)CN(C(C)C)C(C)C)cc1 | 10.5 mm | inactive | inactive | inactive | Active | 8.2 mm | 9.1 mm | 8.3 mm | 9.26 mm | 10.1 mm | 8.2 mm | 9.2 mm | Active | Active | Active | 6.06 mm | 7.17 mm | 8.33 mm | 10.1 mm | 11 mm | zone of inhibition at 70 µg/mL (Aspergillus niger [21]): 12.2 mm; zone of inhibition at 30 µg/mL (Candida albicans [22]): 8.03 mm; zone of inhibition at 50 µg/mL (Candida albicans [23]): 9.16 mm; zone of inhibition at 70 µg/mL (Candida albicans [24]): 10.1 mm; zone of inhibition at 30 µg/mL (Bacillus subtilis [25]): 7.2 mm; zone of inhibition at 50 µg/mL (Bacillus subtilis [26]): 8.23 mm; zone of inhibition at 70 µg/mL (Bacillus subtilis [27]): 9.23 mm; zone of inhibition at 30 µg/mL (Staphylococcus aureus [28]): 7.3 mm |
| CCCCN(C)CC(=O)Nn1c(S)nnc1-c1ccc(OC)cc1 | 9.6 mm | Active | Active | Active | Active | 11 mm | 13.5 mm | 9.2 mm | 10.4 mm | 12.2 mm | 7.2 mm | 8.63 mm | Active | Active | Active | 6.16 mm | 6.26 mm | 7.23 mm | 10.6 mm | 11.1 mm | zone of inhibition at 70 µg/mL (Aspergillus niger [21]): 13.2 mm; zone of inhibition at 30 µg/mL (Candida albicans [22]): 11.1 mm; zone of inhibition at 50 µg/mL (Candida albicans [23]): 12.2 mm; zone of inhibition at 70 µg/mL (Candida albicans [24]): 14.2 mm; zone of inhibition at 30 µg/mL (Bacillus subtilis [25]): 9.27 mm; zone of inhibition at 50 µg/mL (Bacillus subtilis [26]): 10.2 mm; zone of inhibition at 70 µg/mL (Bacillus subtilis [27]): 11.2 mm; zone of inhibition at 30 µg/mL (Staphylococcus aureus [28]): 10.2 mm |
| CCCCN(CCCC)CC(=O)Nn1c(S)nnc1-c1ccc(C)cc1 | 13.2 mm | Active | Active | Active | Active | 12.1 mm | 14 mm | 12.3 mm | 13.6 mm | 14.1 mm | 11.2 mm | 12.1 mm | Active | Active | Active | 8.17 mm | 9.2 mm | 11.4 mm | 15.1 mm | 16.2 mm | zone of inhibition at 70 µg/mL (Aspergillus niger [21]): 18 mm; zone of inhibition at 30 µg/mL (Candida albicans [22]): 11.1 mm; zone of inhibition at 50 µg/mL (Candida albicans [23]): 12.2 mm; zone of inhibition at 70 µg/mL (Candida albicans [24]): 13.2 mm; zone of inhibition at 30 µg/mL (Bacillus subtilis [25]): 10.3 mm; zone of inhibition at 50 µg/mL (Bacillus subtilis [26]): 11.2 mm; zone of inhibition at 70 µg/mL (Bacillus subtilis [27]): 12.2 mm; zone of inhibition at 30 µg/mL (Staphylococcus aureus [28]): 11.1 mm |
| CCCN(CCC)CC(=O)Nn1c(S)nnc1-c1ccc(OC)cc1 | 14.2 mm | Active | Active | Active | Active | 13.2 mm | 14.8 mm | 12.2 mm | 13.2 mm | 14.1 mm | 11.1 mm | 12.2 mm | Active | Active | Active | 10.2 mm | 11.1 mm | 12.2 mm | 14 mm | 15.2 mm | zone of inhibition at 70 µg/mL (Aspergillus niger [21]): 17 mm; zone of inhibition at 30 µg/mL (Candida albicans [22]): 12.5 mm; zone of inhibition at 50 µg/mL (Candida albicans [23]): 13.2 mm; zone of inhibition at 70 µg/mL (Candida albicans [24]): 15.1 mm; zone of inhibition at 30 µg/mL (Bacillus subtilis [25]): 10.2 mm; zone of inhibition at 50 µg/mL (Bacillus subtilis [26]): 11 mm; zone of inhibition at 70 µg/mL (Bacillus subtilis [27]): 12.8 mm; zone of inhibition at 30 µg/mL (Staphylococcus aureus [28]): 12.7 mm |
| COc1ccc(-c2nnc(S)n2NC(=O)CN(C(C)C)C(C)C)cc1 | 12.4 mm | inactive | inactive | inactive | Active | 9.26 mm | 10.3 mm | 11.1 mm | 12.3 mm | 13.3 mm | 9.43 mm | 10.3 mm | Active | Active | Active | 7.26 mm | 8.13 mm | 9.06 mm | 10.1 mm | 11.3 mm | zone of inhibition at 70 µg/mL (Aspergillus niger [21]): 13 mm; zone of inhibition at 30 µg/mL (Candida albicans [22]): 11.2 mm; zone of inhibition at 50 µg/mL (Candida albicans [23]): 12.1 mm; zone of inhibition at 70 µg/mL (Candida albicans [24]): 13.8 mm; zone of inhibition at 30 µg/mL (Bacillus subtilis [25]): 8.5 mm; zone of inhibition at 50 µg/mL (Bacillus subtilis [26]): 9.3 mm; zone of inhibition at 70 µg/mL (Bacillus subtilis [27]): 10.5 mm; zone of inhibition at 30 µg/mL (Staphylococcus aureus [28]): 8.2 mm |
| CCCCCN(CCCCC)CC(=O)Nn1c(S)nnc1-c1ccc(C)cc1 | 8.13 mm | inactive | inactive | inactive | Active | 7.1 mm | 8.16 mm | 7.13 mm | 8.13 mm | 9.17 mm | 6.26 mm | 7.16 mm | Active | Active | Active | 7.07 mm | 8.23 mm | 9.13 mm | 9.06 mm | 11.3 mm | zone of inhibition at 70 µg/mL (Aspergillus niger [21]): 12.1 mm; zone of inhibition at 30 µg/mL (Candida albicans [22]): 7.26 mm; zone of inhibition at 50 µg/mL (Candida albicans [23]): 8.1 mm; zone of inhibition at 70 µg/mL (Candida albicans [24]): 9.23 mm; zone of inhibition at 30 µg/mL (Bacillus subtilis [25]): 6.46 mm; zone of inhibition at 50 µg/mL (Bacillus subtilis [26]): 7.2 mm; zone of inhibition at 70 µg/mL (Bacillus subtilis [27]): 8.23 mm; zone of inhibition at 30 µg/mL (Staphylococcus aureus [28]): 6.03 mm |
